Measured values reported in ChEMBL document CHEMBL3045757, “Common binding requirements of PPAR-// pan agonists: quantitative structureactivity relationship analysis of indanylacetic acid derivatives carrying 4-thiazolyl-phenoxy tail group” (Med Chem Res, 2012).
pEC50: −log10 of the molar value.

Molecular target: T1, Peroxisome proliferator-activated receptor gamma (Homo sapiens, UniProt P37231)
T1 sequence (P37231 whole entry): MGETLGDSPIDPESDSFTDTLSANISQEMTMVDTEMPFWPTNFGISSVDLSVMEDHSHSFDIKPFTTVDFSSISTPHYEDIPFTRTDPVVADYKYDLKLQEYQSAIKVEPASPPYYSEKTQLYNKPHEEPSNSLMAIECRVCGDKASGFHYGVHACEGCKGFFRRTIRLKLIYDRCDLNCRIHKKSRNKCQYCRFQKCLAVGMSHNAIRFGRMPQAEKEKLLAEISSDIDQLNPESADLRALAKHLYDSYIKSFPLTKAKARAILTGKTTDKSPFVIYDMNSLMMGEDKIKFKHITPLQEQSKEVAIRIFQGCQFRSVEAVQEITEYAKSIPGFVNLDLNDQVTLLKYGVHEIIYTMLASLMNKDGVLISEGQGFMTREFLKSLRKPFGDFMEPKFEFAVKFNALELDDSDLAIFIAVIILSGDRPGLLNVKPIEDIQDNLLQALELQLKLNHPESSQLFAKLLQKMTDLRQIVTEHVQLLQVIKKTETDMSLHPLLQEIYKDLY
Experiment: Agonist activity at Homo sapiens (human) PPARgamma expressed in mouse 3T3-L1 cells incubated for 2 days followed by compound wash out measured after 4 days by insulin receptor binding assay
Format: cell-based

CCOc1nc(-c2ccc(OCCCOc3ccc4c(c3)CC[C@H]4CC(=O)O)c(OC)c2)sc1CC
pEC50: 6.75
